# Results from ChEMBL document CHEMBL4312012, “Development of a novel hybrid antimicrobial peptide for targeted killing of Pseudomonas aeruginosa” (Eur J Med Chem, 2020).
# The source made the active and inactive calls. The rule behind the calls is not given here. Peptide text beside a SMILES is read from it.
# What was measured:
# Pseudomonas aeruginosa [1] = assay: Binding affinity to cell surface of Pseudomonas aeruginosa H103 at 10 uM incubated for 1 hr by ELISA; format: organism-based
# [2] = biological target: T1, Outer membrane porin F (Pseudomonas aeruginosa (strain ATCC 15692 / DSM 22644 / CIP 104116 / JCM14847 / LMG 12228 / 1C / PRS 101 / PAO1)) (UniProt P13794); assay: Binding affinity to OprF in Pseudomonas aeruginosa H103 at 10 uM incubated for 1 hr by ELISA
# T1 sequence (whole entry): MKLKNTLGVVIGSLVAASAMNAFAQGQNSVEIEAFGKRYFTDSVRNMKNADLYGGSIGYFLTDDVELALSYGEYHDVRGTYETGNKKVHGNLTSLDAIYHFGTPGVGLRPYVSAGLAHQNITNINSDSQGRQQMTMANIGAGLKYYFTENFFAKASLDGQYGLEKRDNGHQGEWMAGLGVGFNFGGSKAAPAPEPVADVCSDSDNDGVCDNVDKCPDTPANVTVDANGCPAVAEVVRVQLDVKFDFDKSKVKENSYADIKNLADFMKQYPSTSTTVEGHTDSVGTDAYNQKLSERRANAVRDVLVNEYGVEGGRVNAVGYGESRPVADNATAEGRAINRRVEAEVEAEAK
# Staphylococcus aureus [3] = assay: Binding affinity to cell surface of Staphylococcus aureus ATCC 15752 at 10 uM incubated for 1 hr by ELISA; format: organism-based
# Escherichia coli [4] = assay: Binding affinity to cell surface of Escherichia coli KCTC 2223 at 10 uM incubated for 1 hr by ELISA; format: organism-based
# Candida albicans [5] = assay: Binding affinity to cell surface of Candida albicans ATCC 10231 at 10 uM incubated for 1 hr by ELISA; format: organism-based
# [6] = system: Outer membrane porin F (Pseudomonas aeruginosa (strain ATCC 15692 / DSM 22644 / CIP 104116 / JCM14847 / LMG 12228 / 1C / PRS 101 / PAO1)), P13794 [UNDEFINED MUTATION]; assay: Binding affinity to OprF mutant in Pseudomonas aeruginosa H636 at 10 uM incubated for 1 hr by ELISA
# Salmonella typhimurium [7] = assay: Binding affinity to cell surface of Salmonella typhimurium KCTC 2370 at 10 uM incubated for 1 hr by ELISA; format: organism-based; conditions: Salmonella enterica subsp. enterica serovar Typhimurium
# [8] = biological target: T1, Outer membrane porin F (Pseudomonas aeruginosa (strain ATCC 15692 / DSM 22644 / CIP 104116 / JCM14847 / LMG 12228 / 1C / PRS 101 / PAO1)); assay: Binding affinity to recombinant Pseudomonas aeruginosa OprF expressed in Escherichia coli BL21 (DE3) at 10 uM incubated for 1 hr by ELISA
# Pseudomonas aeruginosa [9] = assay: Antibacterial activity against multidrug resistant Pseudomonas aeruginosa H103 infected in BALB/c mouse infected assessed as survival rate at 25 mg/kg, ip measured on day 7; format: functional; conditions: 168 h
# Staphylococcus aureus [10] = assay: Antibacterial activity against Staphylococcus aureus ATCC 15752 assessed as reduction in bacterial cell growth preincubated for 3 hrs followed by medium replenishment further incubated for 18 hrs by serial microdilution method; format: functional
# Escherichia coli [11] = assay: Binding affinity to cell surface of Escherichia coli KCTC 2223 at 1 uM incubated for 5 mins by confocal laser scanning microscopy; format: organism-based
# Pseudomonas aeruginosa [12] = assay: Antibacterial activity against multidrug resistant Pseudomonas aeruginosa H103 infected in BALB/c mouse infected assessed as survival rate at 15 mg/kg, ip measured on day 7; format: functional; conditions: 168 h
# Pseudomonas aeruginosa [13] = assay: Antibacterial activity against Pseudomonas aeruginosa assessed as reduction in bacterial cell growth preincubated for 3 hrs followed by medium replenishment further incubated for 18 hrs by serial microdilution method; format: functional
# [14] = system: Outer membrane porin F (Pseudomonas aeruginosa (strain ATCC 15692 / DSM 22644 / CIP 104116 / JCM14847 / LMG 12228 / 1C / PRS 101 / PAO1)), P13794 [UNDEFINED MUTATION]; assay: Binding affinity to OprF mutant in Pseudomonas aeruginosa H636 at 1 uM incubated for 5 mins by confocal laser scanning microscopy
# Escherichia coli [15] = assay: Antibacterial activity against Escherichia coli KCTC 2223 assessed as reduction in bacterial cell growth preincubated for 3 hrs followed by medium replenishment further incubated for 18 hrs by serial microdilution method; format: functional
# Candida albicans [16] = assay: Antifungal activity against Candida albicans ATCC 10231 assessed as reduction in fungal cell growth preincubated for 3 hrs followed by medium replenishment further incubated for 18 hrs by serial microdilution method; format: functional
# Salmonella typhimurium [17] = assay: Binding affinity to cell surface of Salmonella typhimurium KCTC 2370 at 1 uM incubated for 5 mins by confocal laser scanning microscopy; format: organism-based; conditions: Salmonella enterica subsp. enterica serovar Typhimurium
# Salmonella typhimurium [18] = assay: Antibacterial activity against Salmonella typhimurium KCTC 2370 assessed as reduction in bacterial cell growth preincubated for 3 hrs followed by medium replenishment further incubated for 18 hrs by serial microdilution method; format: functional, Salmonella enterica subsp. enterica serovar Typhimurium; conditions: Salmonella enterica
# [19] = biological target: T1, Outer membrane porin F (Pseudomonas aeruginosa (strain ATCC 15692 / DSM 22644 / CIP 104116 / JCM14847 / LMG 12228 / 1C / PRS 101 / PAO1)); assay: Binding affinity to OprF in Pseudomonas aeruginosa H103 assessed as binding affinity to bacterial cell surface at 1 uM incubated for 5 mins by confocal laser scanning microscopy
# [20] = biological target: T1, Outer membrane porin F (Pseudomonas aeruginosa (strain ATCC 15692 / DSM 22644 / CIP 104116 / JCM14847 / LMG 12228 / 1C / PRS 101 / PAO1)); assay: Binding affinity to OprF in Pseudomonas aeruginosa H103 assessed as binding affinity to bacterial cell surface at 10 uM incubated for 1 hr by ELISA
# Candida albicans [21] = assay: Antifungal activity against Candida albicans ATCC 10231 assessed as reduction in fungal cell growth in presence of GNU7 preincubated for 3 hrs followed by medium replenishment further incubated for 18 hrs by serial microdilution method; format: functional
# Escherichia coli [22] = assay: Antibacterial activity against Escherichia coli KCTC 2223 assessed as reduction in bacterial cell growth in presence of GNU7 preincubated for 3 hrs followed by medium replenishment further incubated for 18 hrs by serial microdilution method; format: functional
# Salmonella typhimurium [23] = assay: Antibacterial activity against Salmonella typhimurium KCTC 2370 assessed as reduction in bacterial cell growth in presence of GNU7 preincubated for 3 hrs followed by medium replenishment further incubated for 18 hrs by serial microdilution method; format: functional, Salmonella enterica subsp. enterica serovar Typhimurium; conditions: Salmonella enterica
# Pseudomonas aeruginosa [24] = assay: Antibacterial activity against Pseudomonas aeruginosa assessed as reduction in bacterial cell growth in presence of GNU7 preincubated for 3 hrs followed by medium replenishment further incubated for 18 hrs by serial microdilution method; format: functional
# Staphylococcus aureus [25] = assay: Antibacterial activity against Staphylococcus aureus ATCC 15752 assessed as reduction in bacterial cell growth in presence of GNU7 preincubated for 3 hrs followed by medium replenishment further incubated for 18 hrs by serial microdilution method; format: functional
# Mus musculus [26] = assay: In vivo antibacterial activity against multidrug resistant Pseudomonas aeruginosa H103 infected in BALB/c mouse assessed as reduction in bacterial load by measuring decrease in colony forming units in kidney at 25 mg/kg, ip measured after 12 hrs; format: functional
# Pseudomonas aeruginosa [27] = assay: Antibacterial activity against Pseudomonas aeruginosa H103 co-cultured with Salmonella typhimurium KCTC 2370 assessed as reduction in bacterial load by measuring decrease in colony forming units at 2 uM incubated for 30 mins by time-kill assay; format: functional
# Escherichia coli [28] = assay: Antibacterial activity against Escherichia coli KCTC 2223 co-cultured with Pseudomonas aeruginosa H103 assessed as reduction in bacterial load by measuring decrease in colony forming units at 2 uM incubated for 30 mins by time-kill assay; format: functional
# Erythrocyte = assay: Hemolytic activity in human RBC incubated for 30 mins; format: ADME, cell-based; conditions: 0.5 h
# Mus musculus [29] = assay: In vivo antibacterial activity against multidrug resistant Pseudomonas aeruginosa H103 infected in BALB/c mouse assessed as reduction in bacterial load by measuring decrease in colony forming units in liver at 25 mg/kg, ip measured after 12 hrs; format: functional
# Mus musculus [30] = assay: In vivo antibacterial activity against multidrug resistant Pseudomonas aeruginosa H103 infected in BALB/c mouse assessed as reduction in bacterial load by measuring decrease in colony forming units in spleen at 25 mg/kg, ip measured after 12 hrs; format: functional
# Salmonella typhimurium [31] = assay: Antibacterial activity against Salmonella typhimurium KCTC 2370 co-cultured with Pseudomonas aeruginosa H103 assessed as reduction in bacterial load by measuring decrease in colony forming units at 2 uM incubated for 30 mins by time-kill assay; format: functional, organism-based; conditions: Salmonella enterica subsp. enterica serovar Typhimurium
# Pseudomonas aeruginosa [32] = assay: Antibacterial activity against Pseudomonas aeruginosa H103 co-cultured with Escherichia coli KCTC 2223 assessed as reduction in bacterial load by measuring decrease in colony forming units at 2 uM incubated for 30 mins by time-kill assay; format: functional
Compound,Activity (Pseudomonas aeruginosa [1]),Activity [2],Activity (Staphylococcus aureus [3]),Activity (Escherichia coli [4]),Activity (Candida albicans [5]),Activity [6],Activity (Salmonella typhimurium [7]),Activity [8],survival at 25 mg/kg (Pseudomonas aeruginosa [9]) [%],MIC (Staphylococcus aureus [10]) [µM],Activity (Escherichia coli [11]),MIC (Pseudomonas aeruginosa [13]) [µM],Activity [14],MIC (Escherichia coli [15]) [µM],MIC (Candida albicans [16]) [µM],Activity (Salmonella typhimurium [17]),MIC (Salmonella typhimurium [18]) [µM],Activity [19],also measured
CC(C)C[C@H](NC(=O)[C@H](CO)NC(=O)[C@H](CO)NC(=O)[C@H](CS)NC(=O)[C@@H](N)CO)C(=O)N[C@H](C(=O)N[C@H](C(=O)N[C@@H](CC(C)C)C(=O)N[C@@H](CCCNC(=N)N)C(=O)N1CCC[C@H]1C(=O)N[C@@H](CS)C(=O)NCC(=O)O)[C@@H](C)O)[C@@H](C)O (H-SCSSLTTLRPCG-OH),Active,Active,Active,Active,Active,Active,Active,inactive,–,–,–,–,–,–,–,–,–,–,–
C[C@@H](O)[C@H]1C(=O)N2C(C(=O)O)=C(S[C@@H]3CN[C@H](C(=O)N(C)C)C3)[C@H](C)[C@H]12 [MEROPENEM],–,–,–,–,–,–,–,–,25,–,–,–,–,–,–,–,–,–,–
H-RLLRPLLQLLKQKLR-OH,–,–,–,–,–,–,–,–,–,4,inactive,32,inactive,8,16,inactive,16,inactive,survival at 15 mg/kg (Pseudomonas aeruginosa [12]): 62.5%
H-SQRKLAAKLTSK-OH,–,Active,inactive,inactive,inactive,inactive,inactive,Active,–,> 32,inactive,> 32,inactive,> 32,> 32,inactive,> 32,Active,Activity [20]: Active; MIC (Candida albicans [21]): 16 µM; MIC (Escherichia coli [22]): 8 µM; MIC (Salmonella typhimurium [23]): 16 µM; MIC (Pseudomonas aeruginosa [24]): 32 µM; MIC (Staphylococcus aureus [25]): 4 µM
H-SQRKLAAKLTSKGGGRLLRPLLQLLKQKLR-OH,–,–,–,–,–,–,–,–,100,2,inactive,2,inactive,1,8,inactive,2,Active,Activity (Mus musculus [26]): 3.6 log10CFU; Activity (Pseudomonas aeruginosa [27]): 1.4 log10CFU; Activity (Escherichia coli [28]): 0.6 log10CFU; Activity (Erythrocyte): Non-Toxic; Activity (Mus musculus [29]): 3 log10CFU; Activity (Mus musculus [30]): 2.8 log10CFU; Activity (Salmonella typhimurium [31]): inactive; Activity (Pseudomonas aeruginosa [32]): 2.7 log10CFU
H-VILTGPEAEYFW-OH,inactive,–,–,–,–,–,–,–,–,–,–,–,–,–,–,–,–,–,–
